Assay results: ChEMBL document CHEMBL4334438, “Discovery of novel glycogen synthase kinase-3α inhibitors: Structure-based virtual screening, preliminary SAR and biological evaluation for treatment of acute myeloid leukemia” (Eur J Med Chem, 2019)
Calls of active or inactive are those of the source. The rule behind the calls is not given here.

What was measured:
NB-4 [1] = test: Induction of cell differentiation in human NB4 cells assessed as increase in CD14-FITC positive cells after 6 days by flow cytometry analysis; format: functional, cell-based
HL-60 [2] = test: Induction of cell death in human HL60 cells at 10 to 30 uM after 6 days by trypan blue assay; format: cell-based; conditions: hl-60, 144 h
[3] = target: Serine/threonine-protein kinase LATS2 (Homo sapiens) (UniProt Q9NRM7); test: Inhibition of human LATS2 assessed as residual activity at 1 uM by radiometric assay relative to control
NB-4 [4] = test: Induction of monocytic differentiation in human NB4 cells assessed as increase in CD11b-APC-Cy7 positive cells at 30 uM after 6 days by flow cytometry analysis; format: functional, cell-based
[5] = target: Serine/threonine-protein kinase MRCK gamma (Homo sapiens) (UniProt Q6DT37); test: Inhibition of recombinant human MRCKgamma assessed as residual activity at 1 uM using KKRNRTLTV as substrate measured after 40 mins in presence of [gamma33P]ATP by scintillation counting method relative to control
[6] = target: Serine/threonine-protein kinase WNK4 (Homo sapiens) (UniProt Q96J92); test: Inhibition of human WNK4 assessed as residual activity at 1 uM using myelin basic protein as substrate measured after 120 mins in presence of [gamma33P]ATP by scintillation counting method relative to control
HL-60 [7] = test: Effect on total beta-catenin level in human HL60 cells at 1 to 30 uM after 24 hrs by Western blot analysis; format: ADME, cell-based; conditions: hl-60, 24 h
NB-4 [8] = test: Induction of monocytic differentiation in human NB4 cells assessed as increase in CD14 positive cells at 30 uM after 6 days by FITC staining based flow cytometry analysis; format: functional, cell-based
[9] = target: STE20/SPS1-related proline-alanine-rich protein kinase (Homo sapiens) (UniProt Q9UEW8); test: Inhibition of recombinant human STK39 assessed as residual activity at 1 uM in presence of [gamma33P]ATP by scintillation counting based radiometry assay relative to control
Homo sapiens = species on record: Homo sapiens; test: Selectivity index, ratio of IC50 for inhibition of human GSK-3beta H350L mutant (2 to end residues) to IC50 for inhibition of human GSK-3alpha S449A mutant (2 to end residues)
[10] = target: Glycogen synthase kinase-3 alpha (Homo sapiens, UniProt P49840); test: Inhibition of GSK-3alpha phosphorylation at Y279 residue in human HL60 cells after 24 hrs by Western blot analysis; format: cell-based
HL-60 [11] = test: Inhibition of colony formation in human HL60 cells preincubated for 72 hrs followed by compound washout and measured after 7 to 10 days; format: functional, cell-based
[12] = target: Serine/threonine-protein kinase LATS1 (Homo sapiens) (UniProt O95835); test: Inhibition of human LATS1 assessed as residual activity at 1 uM by radiometric assay relative to control
NB-4 [13] = test: Effect on total beta-catenin level in human NB4 cells at 1 to 30 uM after 24 hrs by Western blot analysis; format: ADME, cell-based; conditions: nb-4, 24 h
[14] = target: Dual specificity mitogen-activated protein kinase kinase 7 (Homo sapiens) (UniProt O14733); test: Inhibition of recombinant human MKK7beta (2 to end residues) assessed as residual activity at 1 uM using inactive JNK1a1 as substrate incubated for 40 mins in presence of [gamma-33ATP by scintillation counting based radiometry assay relative to control
Sequence of Dual specificity mitogen-activated protein kinase kinase 7 (Homo sapiens) (O14733 whole entry): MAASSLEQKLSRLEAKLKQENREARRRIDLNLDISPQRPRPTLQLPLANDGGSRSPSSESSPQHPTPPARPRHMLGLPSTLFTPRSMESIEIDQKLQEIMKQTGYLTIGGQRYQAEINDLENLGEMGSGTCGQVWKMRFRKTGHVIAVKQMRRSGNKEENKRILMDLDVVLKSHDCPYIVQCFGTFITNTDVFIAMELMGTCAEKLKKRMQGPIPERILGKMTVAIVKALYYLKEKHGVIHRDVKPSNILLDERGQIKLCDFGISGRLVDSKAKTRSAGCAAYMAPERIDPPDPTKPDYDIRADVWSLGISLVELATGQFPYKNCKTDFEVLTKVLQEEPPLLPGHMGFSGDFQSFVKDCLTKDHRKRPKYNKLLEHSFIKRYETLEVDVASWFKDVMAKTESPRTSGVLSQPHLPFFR

Sequence of Serine/threonine-protein kinase WNK4 (Homo sapiens) (Q96J92 whole entry): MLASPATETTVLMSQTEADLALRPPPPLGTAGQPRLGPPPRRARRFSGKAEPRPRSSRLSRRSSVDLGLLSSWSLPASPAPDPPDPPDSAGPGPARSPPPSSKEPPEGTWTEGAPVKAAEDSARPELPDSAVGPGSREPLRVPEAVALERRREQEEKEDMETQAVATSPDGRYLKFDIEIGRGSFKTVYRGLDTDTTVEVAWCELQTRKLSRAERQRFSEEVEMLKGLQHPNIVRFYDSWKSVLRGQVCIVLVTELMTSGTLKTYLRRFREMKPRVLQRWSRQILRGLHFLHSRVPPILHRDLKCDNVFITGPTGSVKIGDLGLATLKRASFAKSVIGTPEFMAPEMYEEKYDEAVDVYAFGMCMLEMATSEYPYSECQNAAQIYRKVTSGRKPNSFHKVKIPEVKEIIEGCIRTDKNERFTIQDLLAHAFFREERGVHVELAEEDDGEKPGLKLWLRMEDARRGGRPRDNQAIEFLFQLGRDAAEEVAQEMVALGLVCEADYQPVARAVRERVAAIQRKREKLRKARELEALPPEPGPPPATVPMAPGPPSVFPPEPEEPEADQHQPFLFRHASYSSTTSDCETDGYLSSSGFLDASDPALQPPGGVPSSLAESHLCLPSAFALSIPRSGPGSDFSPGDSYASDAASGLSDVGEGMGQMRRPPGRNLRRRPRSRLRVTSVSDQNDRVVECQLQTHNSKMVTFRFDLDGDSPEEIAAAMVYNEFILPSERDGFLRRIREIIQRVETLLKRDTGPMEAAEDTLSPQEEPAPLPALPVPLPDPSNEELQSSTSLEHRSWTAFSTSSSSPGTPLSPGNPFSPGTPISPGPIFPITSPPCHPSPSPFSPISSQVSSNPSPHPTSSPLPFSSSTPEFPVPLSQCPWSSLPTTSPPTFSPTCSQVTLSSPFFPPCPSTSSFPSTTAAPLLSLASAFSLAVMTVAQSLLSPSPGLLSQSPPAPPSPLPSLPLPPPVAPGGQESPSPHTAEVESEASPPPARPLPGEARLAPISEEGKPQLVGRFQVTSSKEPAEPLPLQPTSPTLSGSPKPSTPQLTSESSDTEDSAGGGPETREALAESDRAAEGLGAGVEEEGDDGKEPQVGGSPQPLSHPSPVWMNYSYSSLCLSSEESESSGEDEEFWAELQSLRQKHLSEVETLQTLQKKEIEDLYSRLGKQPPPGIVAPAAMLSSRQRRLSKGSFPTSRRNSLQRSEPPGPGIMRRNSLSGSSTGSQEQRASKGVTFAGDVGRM
Sequence of Serine/threonine-protein kinase LATS1 (Homo sapiens) (O95835 whole entry): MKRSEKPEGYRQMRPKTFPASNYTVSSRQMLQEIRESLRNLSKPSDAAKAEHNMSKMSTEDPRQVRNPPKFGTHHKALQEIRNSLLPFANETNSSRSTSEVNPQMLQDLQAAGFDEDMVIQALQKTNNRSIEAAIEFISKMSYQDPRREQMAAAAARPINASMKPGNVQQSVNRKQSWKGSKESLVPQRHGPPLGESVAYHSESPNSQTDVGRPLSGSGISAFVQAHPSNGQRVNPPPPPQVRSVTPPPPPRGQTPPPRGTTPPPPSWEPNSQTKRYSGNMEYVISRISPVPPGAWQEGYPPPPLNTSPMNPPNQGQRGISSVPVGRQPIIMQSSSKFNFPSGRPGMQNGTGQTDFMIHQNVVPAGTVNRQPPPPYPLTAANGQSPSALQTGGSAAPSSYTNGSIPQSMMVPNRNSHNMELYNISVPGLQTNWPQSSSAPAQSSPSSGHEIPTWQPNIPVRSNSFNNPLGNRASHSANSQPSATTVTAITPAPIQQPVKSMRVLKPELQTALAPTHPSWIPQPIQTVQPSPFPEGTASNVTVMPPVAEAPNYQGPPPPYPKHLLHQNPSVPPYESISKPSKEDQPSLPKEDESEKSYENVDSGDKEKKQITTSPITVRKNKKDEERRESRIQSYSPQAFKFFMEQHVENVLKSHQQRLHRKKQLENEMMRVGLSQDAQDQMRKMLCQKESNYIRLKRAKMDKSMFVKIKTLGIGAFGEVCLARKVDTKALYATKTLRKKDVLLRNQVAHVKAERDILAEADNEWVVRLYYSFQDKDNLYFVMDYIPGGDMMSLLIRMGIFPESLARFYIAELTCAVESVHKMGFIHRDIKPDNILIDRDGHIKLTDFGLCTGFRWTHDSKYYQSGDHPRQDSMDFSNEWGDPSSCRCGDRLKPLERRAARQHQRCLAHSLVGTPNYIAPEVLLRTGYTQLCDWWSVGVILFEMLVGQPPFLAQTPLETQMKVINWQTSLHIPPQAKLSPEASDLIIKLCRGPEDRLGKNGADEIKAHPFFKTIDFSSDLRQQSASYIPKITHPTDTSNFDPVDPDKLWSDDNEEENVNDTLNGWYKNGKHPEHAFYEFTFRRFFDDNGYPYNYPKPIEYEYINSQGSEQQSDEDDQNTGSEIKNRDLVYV
Sequence of Glycogen synthase kinase-3 alpha (P49840 2-483 limits assumed): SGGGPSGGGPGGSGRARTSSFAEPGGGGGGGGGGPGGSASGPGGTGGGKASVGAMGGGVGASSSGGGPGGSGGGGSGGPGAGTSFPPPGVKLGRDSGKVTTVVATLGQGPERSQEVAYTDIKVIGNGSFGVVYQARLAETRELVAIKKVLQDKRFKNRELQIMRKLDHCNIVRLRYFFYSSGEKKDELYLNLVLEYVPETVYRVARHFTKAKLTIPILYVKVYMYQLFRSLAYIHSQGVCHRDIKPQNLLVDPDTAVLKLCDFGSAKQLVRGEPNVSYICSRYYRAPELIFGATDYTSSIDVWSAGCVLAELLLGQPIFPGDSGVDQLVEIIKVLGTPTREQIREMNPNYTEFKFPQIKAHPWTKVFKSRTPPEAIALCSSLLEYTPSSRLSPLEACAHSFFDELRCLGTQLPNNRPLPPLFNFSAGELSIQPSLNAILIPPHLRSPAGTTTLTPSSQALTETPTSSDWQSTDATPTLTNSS
Sequence of Serine/threonine-protein kinase LATS2 (Homo sapiens) (Q9NRM7 whole entry): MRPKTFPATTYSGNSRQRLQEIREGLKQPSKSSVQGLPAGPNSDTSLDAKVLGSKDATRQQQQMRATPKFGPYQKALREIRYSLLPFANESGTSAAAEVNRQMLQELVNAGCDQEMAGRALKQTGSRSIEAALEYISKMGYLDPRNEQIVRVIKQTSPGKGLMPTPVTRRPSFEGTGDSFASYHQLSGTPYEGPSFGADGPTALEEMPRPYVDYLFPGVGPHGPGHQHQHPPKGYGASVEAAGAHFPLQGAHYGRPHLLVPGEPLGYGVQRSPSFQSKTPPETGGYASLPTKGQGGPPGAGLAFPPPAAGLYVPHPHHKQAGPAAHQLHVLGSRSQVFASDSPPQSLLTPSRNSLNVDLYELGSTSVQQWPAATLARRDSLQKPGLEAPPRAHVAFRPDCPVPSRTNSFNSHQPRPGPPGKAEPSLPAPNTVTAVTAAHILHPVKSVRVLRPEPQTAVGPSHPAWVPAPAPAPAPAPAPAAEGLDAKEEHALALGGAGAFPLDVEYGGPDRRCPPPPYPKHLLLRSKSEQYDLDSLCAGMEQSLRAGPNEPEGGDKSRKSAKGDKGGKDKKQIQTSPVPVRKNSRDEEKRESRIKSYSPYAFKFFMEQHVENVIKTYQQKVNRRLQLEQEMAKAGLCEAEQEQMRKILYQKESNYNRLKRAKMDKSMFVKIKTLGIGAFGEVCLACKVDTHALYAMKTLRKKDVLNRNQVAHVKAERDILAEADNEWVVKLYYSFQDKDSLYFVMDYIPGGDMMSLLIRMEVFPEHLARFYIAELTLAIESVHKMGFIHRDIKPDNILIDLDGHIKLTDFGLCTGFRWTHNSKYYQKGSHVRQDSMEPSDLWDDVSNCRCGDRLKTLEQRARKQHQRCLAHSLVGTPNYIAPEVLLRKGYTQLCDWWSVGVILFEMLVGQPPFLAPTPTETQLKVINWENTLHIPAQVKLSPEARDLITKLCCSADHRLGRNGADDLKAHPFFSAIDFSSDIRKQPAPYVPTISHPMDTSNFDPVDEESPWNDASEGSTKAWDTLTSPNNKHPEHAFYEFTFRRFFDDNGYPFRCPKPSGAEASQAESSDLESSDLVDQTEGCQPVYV

Row | Compound | Activity (NB-4 [1]) | Activity (HL-60 [2]) | Activity [3] | Activity (NB-4 [4]) | Activity [5] | Activity [6] | Activity (HL-60 [7]) | Activity (NB-4 [8]) | Activity [9] | Ratio IC50 (Homo sapiens) | inhibition [10] | inhibition (HL-60 [11]) | Activity [12] | Activity (NB-4 [13]) | Activity [14]
1 | C=CCOC(=O)c1cc(-c2ccc(/C=C3/NC(=S)NC3=O)o2)ccc1Cl | Dose-dependent effect | Non-Toxic | 100% | Active | 110% | 93% | Non-Toxic | Active | 103% | 6.6 | Dose-dependent effect | Dose-dependent effect | 114% | Non-Toxic | 
2 | N=C1NC(=O)/C(=C\c2ccc(-c3cccc([N+](=O)[O-])c3)o2)S1 |  |  |  |  |  |  |  |  |  |  |  |  |  |  | 93%
